Source: US8093037B2, “Engineered microorganisms with enhanced fermentation activity” (Verdezyne, Inc., priority 2009, dated 2012)

Experiment: Heterologous xylose isomerase expression in yeast (active yes/no)
Format: cell-based, Saccharomyces cerevisiae
Conditions: xylose isomerase of donor organism expressed in engineered yeast (S. cerevisiae)

| Molecule | Active? (yes/no) |
| --- | --- |
| Actinoplanes missouriensis: xylose isomerase of this donor organism, expressed in S. cerevisiae | No |
| Bacteroides thetaiotaomicron: xylose isomerase of this donor organism, expressed in S. cerevisiae | Yes |
| Streptomyces rubiginosus: xylose isomerase of this donor organism, expressed in S. cerevisiae | No |
| Thermus thermophilus: xylose isomerase of this donor organism, expressed in S. cerevisiae | Yes |
| Clostridium thermosulfurogenes: xylose isomerase of this donor organism, expressed in S. cerevisiae (protein, UniProt P19148 1-439, looked up) Xylose isomerase: MNKYFENVSKIKYEGPKSNNPYSFKFYNPEEVIDGKTMEEHLRFSIAYWHTFTADGTDQFGKATMQRPWNHYTDPMDIAKARVEAAFEFFDKINAPYFCFHDRDIAPEGDTLRETNKNLDTIVAMIKDYLKTSKTKVLWGTANLFSNPRFVHGASTSCNADVFAYSAAQVKKALEITKELGGENYVFWGGREGYETLLNTDMEFELDNFARFLHMAVDYAKEIGFEGQFLIEPKPKEPTKHQYDFDVANVLAFLRKYDLDKYFKVNIEANHATLAFHDFQHELRYARINGVLGSIDANTGDMLLGWDTDQFPTDIRMTTLAMYEVIKMGGFDKGGLNFDAKVRRASFEPEDLFLGHIAGMDAFAKGFKVAYKLVKDRVFDKFIEERYASYKDGIGADIVSGKADFRSLEKYALERSQIVNKSGRQELLESILNQYLFAE | No |
| Escherichia coli: xylose isomerase of this donor organism, expressed in S. cerevisiae (protein, UniProt P00944 1-440, looked up) Xylose isomerase: MQAYFDQLDRVRYEGSKSSNPLAFRHYNPDELVLGKRMEEHLRFAACYWHTFCWNGADMFGVGAFNRPWQQPGEALALAKRKADVAFEFFHKLHVPFYCFHDVDVSPEGASLKEYINNFAQMVDVLAGKQEESGVKLLWGTANCFTNPRYGAGAATNPDPEVFSWAATQVVTAMEATHKLGGENYVLWGGREGYETLLNTDLRQEREQLGRFMQMVVEHKHKIGFQGTLLIEPKPQEPTKHQYDYDAATVYGFLKQFGLEKEIKLNIEANHATLAGHSFHHEIATAIALGLFGSVDANRGDAQLGWDTDQFPNSVEENALVMYEILKAGGFTTGGLNFDAKVRRQSTDKYDLFYGHIGAMDTMALALKIAARMIEDGELDKRIAQRYSGWNSELGQQILKGQMSLADLAKYAQEHHLSPVHQSGRQEQLENLVNHYLFDK | No |
| Bacillus subtilis: xylose isomerase of this donor organism, expressed in S. cerevisiae (protein, UniProt P0CI80 1-445, looked up, expressed in S. cerevisiae) Xylose isomerase: MAQSHSSSINYFGSANKVVYEGKDSTNPLAFKYYNPQEVIGGKTLKEHLRFSIAYWHTFTADGTDVFGAATMQRPWDHYKGMDLAKMRVEAAFEMFEKLDAPFFAFHDRDIAPEGSTLKETNQNLDMIMGMIKDYMRNSGVKLLWNTANMFTNPRFVHGAATSCNADVFAYAAAQVKKGLETAKELGAENYVFWGGREGYETLLNTDLKFELDNLARFMHMAVDYAKEIGYTGQFLIEPKPKEPTTHQYDTDAATTIAFLKQYGLDNHFKLNLEANHATLAGHTFEHELRMARVHGLLGSVDANQGHPLLGWDTDEFPTDLYSTTLAMYEILQNGGLGSGGLNFDAKVRRSSFEPDDLIYAHIAGMDAFARGLKVAHKLIEDRVFEDVIQHRYRSFTEGIGLEIIEGRANFHTLEQYALNHKSIKNESGRQEKLKAILNQYILEV | No |
